Experimental data: patent US20240150301A1, “METHODS OF MODULATING ANDROGEN RECEPTOR CONDENSATES” (ETERN BIOPHARMA (SHANGHAI) CO., LTD., priority 2021, published 2024)
“Also recorded” adds a separate entry of the source.

How the values were obtained:
AR = target: T1, AR (Homo sapiens, UniProt P10275); experiment: ARE-luciferase reporter assay in LNCaP cells (DHT-induced); type: cell-based; settings: 1 nM DHT, 24 h, normalized to cell viability, read-out: LNCaP ARE-luc IC50
T1 sequence (P10275 1-920 T878A): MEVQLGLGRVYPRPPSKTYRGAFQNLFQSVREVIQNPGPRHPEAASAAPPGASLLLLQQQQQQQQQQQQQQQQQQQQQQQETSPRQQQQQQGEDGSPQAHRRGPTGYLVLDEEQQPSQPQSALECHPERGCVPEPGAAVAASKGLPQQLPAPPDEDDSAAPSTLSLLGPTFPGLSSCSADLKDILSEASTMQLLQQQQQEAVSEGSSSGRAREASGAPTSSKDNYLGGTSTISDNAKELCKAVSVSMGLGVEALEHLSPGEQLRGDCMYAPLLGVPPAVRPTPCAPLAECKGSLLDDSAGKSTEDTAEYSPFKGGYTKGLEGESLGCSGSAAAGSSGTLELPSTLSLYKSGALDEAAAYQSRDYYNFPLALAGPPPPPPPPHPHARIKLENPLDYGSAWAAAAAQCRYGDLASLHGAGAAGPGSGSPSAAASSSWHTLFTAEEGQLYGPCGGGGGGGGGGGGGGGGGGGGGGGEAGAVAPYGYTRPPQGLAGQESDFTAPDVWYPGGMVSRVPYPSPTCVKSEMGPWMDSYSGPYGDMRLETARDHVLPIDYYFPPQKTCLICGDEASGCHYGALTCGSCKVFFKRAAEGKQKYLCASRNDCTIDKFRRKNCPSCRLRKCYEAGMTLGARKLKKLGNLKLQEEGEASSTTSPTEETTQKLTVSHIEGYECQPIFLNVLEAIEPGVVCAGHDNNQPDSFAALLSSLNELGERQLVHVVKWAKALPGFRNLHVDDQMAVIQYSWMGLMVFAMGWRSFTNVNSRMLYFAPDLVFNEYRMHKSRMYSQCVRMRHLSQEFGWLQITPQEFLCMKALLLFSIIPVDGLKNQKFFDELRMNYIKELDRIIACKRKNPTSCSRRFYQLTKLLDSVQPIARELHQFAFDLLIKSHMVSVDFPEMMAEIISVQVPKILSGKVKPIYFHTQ
Description: (§1) The ARE-luciferase reporter plasmid contains functional AREs (androgen response elements) to which AR binds in response to androgen to induce luciferase activity. LNCaP (Cobioer) cells were transiently transfected with the ARE-luciferase reporter in charcoal stripped FBS/phenol red-free RPMI medium prior to treatment for 24 hours. Then DMSO or test compounds with serial diluted concentrations were added one hour prior to the addition of DHT(1 nM). After 24 h of incubation with DHT, cells were lysed and luciferase activity was assayed using the ONE-Glo™ Luciferase Assay System (Promega) and measured using EnVision Multimode Plate Reader, according to manufacturer's instructions. Values were normalized to cell viability determined by CellTiter-Glo® Luminescent Cell Viability Assay Kit (Promega). […] GraphPad Prism graphing software was used to calculate IC50 values.

LNCaP cells = experiment: Cell proliferation assay (CellTiter-Glo), LNCaP; type: cell-based; settings: Homo sapiens, 96 h, 0.2 nM DHT, 4 days, read-out: LNCaP IC50 AR-positive (cell proliferation)
Description: (§2) To evaluate the effect of exemplary compounds on proliferation of AR/AR-V7-dependent prostate cancer cells, cell viability assay was performed in LNCaP (AR-positive), 22Rv1 (AR-positive; AR-V7 positive), VCaP (AR-positive; AR-V7 positive), and DU145 (AR-negative) cells, respectively.
(§3) LNCaP cells were seeded in charcoal stripped FBS/phenol red-free RPMI medium in 96-well plates for 24 h before pretreating for 1 h with test compounds prior to addition of 0.2 nM DHT for 4 days. 22Rv1 or VCaP cells were cultured in charcoal stripped FBS/phenol red-free RPMI medium for 24 h before addition of test compounds for 4 days. DU145 cells were seeded in complete medium for 24 h before addition of test compounds for 4 days. Cell proliferation was measured with CellTiter-Glo® Luminescent Cell Viability Assay (Promega). In LNCaP cells, DHT-dependent cell growth is calculated by measuring the difference between vehicle control (DMSO) cells treated with or without 0.2 nM DHT. The IC50 values were determined using the four parameter fit via GraphPad Prism graphing software.

22Rv1 cells = experiment: Cell proliferation assay (CellTiter-Glo), 22Rv1; type: cell-based; settings: Homo sapiens, 22Rv1, 96 h; 4 days; read-out: 22Rv1 IC50 AR-positive; AR-V7 positive (cell proliferation)
Description: as §2, §3

VCaP cells = experiment: Cell proliferation assay (CellTiter-Glo), VCaP; type: cell-based; settings: Homo sapiens, 96 h, 4 days, read-out: VCaP IC50 AR-positive, AR-V7 positive (cell proliferation)
Description: as §2, §3

DU145 cells = experiment: Cell proliferation assay (CellTiter-Glo), DU145; type: cell-based; settings: Homo sapiens, DU-145, 96 h; 4 days; read-out: DU145 IC50 AR-negative (cell proliferation)
Description: as §2, §3

[1] = test system: AR or AR-V7 downstream target genes; experiment: AR/AR-V7 target gene qPCR assay in 22Rv1 cells; type: cell-based, human; settings: 22Rv1, 48 h, RT-qPCR
Description: To evaluate the effect of exemplary compounds on mRNA expression of AR or AR-V7 downstream target genes, real-time quantitative PCR measurements were performed in prostate cancer cell line 22Rv1 expressing both AR and AR-V7.
22Rv1 cells were cultured in charcoal stripped FBS/phenol red-free RPMI medium for 24 h, and then treated with DMSO or test compounds for additional 48 h prior to RT-qPCR. Briefly, RNA was isolated from cells using RNeasy Mini Kit (Qiagen) following the manufacturer's protocol. RNA was reverse transcribed and subjected to qPCR using PowerUp™ SYBR™ Green Master Mix (Applied Biosystems). The relative quantity of the target genes was calculated using the ΔΔCt method by comparing Ct of the target genes and mean Ct of the housekeeping gene GAPDH.

AR V7 [2] = target: T2, AR V7 (Homo sapiens, UniProt P10275); experiment: ARE-luciferase reporter assay in HEK293T cells cotransfected with AR-V7; type: cell-based; design: host or cells: HEK293T; settings: HEK293T cotransfected with AR-V7, hormone-starved, 24 h; read-out: HEK293T(V7) ARE-luc IC50
T2 sequence (P10275 1-644 isoform P10275-3): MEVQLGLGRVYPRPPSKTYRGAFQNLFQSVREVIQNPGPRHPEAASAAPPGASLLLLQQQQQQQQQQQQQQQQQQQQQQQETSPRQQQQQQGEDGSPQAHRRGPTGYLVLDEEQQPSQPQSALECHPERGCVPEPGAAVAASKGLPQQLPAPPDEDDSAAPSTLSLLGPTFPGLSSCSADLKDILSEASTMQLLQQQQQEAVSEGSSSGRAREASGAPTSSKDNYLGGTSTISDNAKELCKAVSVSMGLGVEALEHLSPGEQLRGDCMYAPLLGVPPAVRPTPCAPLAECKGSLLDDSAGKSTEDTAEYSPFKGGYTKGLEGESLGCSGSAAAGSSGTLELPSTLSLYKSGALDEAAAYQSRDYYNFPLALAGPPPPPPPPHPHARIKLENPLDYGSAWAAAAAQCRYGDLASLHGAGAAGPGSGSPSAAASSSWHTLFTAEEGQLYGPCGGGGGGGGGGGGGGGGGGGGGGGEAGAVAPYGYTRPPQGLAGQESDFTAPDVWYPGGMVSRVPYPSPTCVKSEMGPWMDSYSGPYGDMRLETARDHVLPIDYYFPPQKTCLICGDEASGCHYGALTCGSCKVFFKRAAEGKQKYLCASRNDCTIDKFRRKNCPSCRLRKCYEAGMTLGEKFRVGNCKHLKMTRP
Description: as §1
(§4) To evaluate the transcriptional activity of AR-V7, HEK293T(Cobioer) cells were transiently cotransfected with an expression vector for AR-V7 and the ARE-luciferase reporter in hormone-starved conditions. For 22Rv1(Cobioer) prostate cancer cell line, which expresses endogenous AR-V7, ARE-luciferase reporter was transiently transfected in hormone-starved conditions. 24 h after transfection, DMSO or test compounds with serial diluted concentrations were added for additional 24 h incubation. Reporter activity was detected and normalized by cell viability as described above. Treatments were normalized to DMSO control activity, and IC50 values were further determined via GraphPad Prism graphing software.

AR V7 [3] = target: T2, AR V7; experiment: ARE-luciferase reporter assay in 22Rv1 cells (endogenous AR-V7); type: cell-based; design: 22Rv1(Cobioer) prostate cancer cell line, which expresses endogenous AR-V7; host or cells: 22Rv1; settings: 22Rv1, hormone-starved, 24 h; read-out: 22Rv1 ARE-luc IC50
Description: as §1, §4

[4] = test system: AF-1 recombinant protein (human AR-NTD); experiment: AF-1 STD NMR binding assay; settings: 25 μM AF-1, 250 μM compound
Description: Binding of the exemplary compounds to human AR-NTD was performed using STD […] Nuclear Magnetic Resonance (STD NMR) analysis with purified AF-1 recombinant protein.
Binding of the exemplary compounds to human AR-NTD was performed using STD […] Nuclear Magnetic Resonance (STD NMR) analysis with purified Tau-5AF-1 recombinant protein. All NMR spectroscopy experiments were performed on a Bruker Avance III 600 MHz spectrometer. NMR samples contain 25 μM AF-1 and 250 μM compound, and were diluted by PBS (pH 7.4, 60% D20) buffer to 500 μL. For the STD experiments, the standard Bruker stddiffgp19.3 pulse sequence was used with a saturation time of 2 s and a spectral width of 16 ppm with 128 scans. The on-resonance frequency was set to −0.4 ppm, while the off-resonance frequency was set to 33 ppm. Appropriate blank experiments, in the absence of protein or compound, were performed to test the lack of direct saturation to the compound protons.

Structure (SMILES)	IC50 (AR) [nM]	IC50 (LNCaP cells) [nM]	IC50 (22Rv1 cells) [nM]	IC50 (VCaP cells) [µM]	IC50 (DU145 cells) [µM]	mRNA expression of target genes of either AR or AR-V7 [1]	IC50 (AR V7 [2]) [nM]	IC50 (AR V7 [3]) [µM]	binding to AF-1 (STD difference spectrum) [4]
CC(C)(c1ccc(OCc2ccnc(N=S3(=O)CCCC3)n2)cc1)c1cc(Cl)c(OCCCl)c(C#N)c1 [Compound 2, 3-chloro-2-(2-chloroethoxy)-5-(2-(4-((2-((1-oxidotetrahydro-1λ^6-thiophen-1-ylidene)amino)pyrimidin-4-yl)methoxy)phenyl)propan-2-yl) benzonitrile]	2820	520	2750	8.81	> 20	inhibited mRNA expression	2300	4.4	
CC(C)(c1ccc(OCc2ccnc(N=S3(=O)CCNCC3)n2)cc1)c1cc(Cl)c(OCCO)c(C#N)c1 [Compound 62, 3-chloro-2-(2-hydroxyethoxy)-5-(2-(4-((2-((1-oxido-1λ^6-thiomorpholin-1-ylidene)amino)pyrimidin-4-yl)methoxy)phenyl)propan-2-yl)benzonitrile]									confirmed the binding; also recorded: binds to AF-1
